Test results taken from article PMC9839507 (ACS applied materials & interfaces, 2022).

Test system: orthotopic U87MG-luc glioma
Type: in vivo, BALB/c nude mice

SMILES: CC1(C)C(/C=C/C=C/C=C/C=C2\N(CCCCS(=O)(=O)O)c3ccc4ccccc4c3C2(C)C)=[N+](CCCCS(=O)(=O)[O-])c2ccc3ccccc3c21 [ICG, indocyanine green, reference compound]
- detection in orthotopic glioma by fluorescent imaging (2 h after i.v. injection, 30 nmol, n = 3): detected
- ICG signal at the tumor site by tissue fluorescence imaging (Figure S9): slightly detectable
- ex vivo fluorescent signals in tumors (brains harvested at 72 h postinjection): undetectable
